For 23 compounds, EC50 results are on record in patent US20250368628A1, “METHODS AND COMPOUNDS FOR MODULATING INHERITED GENETIC DISEASES” (Design Therapeutics, Inc., priority 2022, published 2025).

In assay [1] the test system is Myotonic Dystrophy 1 affected patient fibroblasts (Coriel GM04602; 1600 CTG repeats). Put plainly: DM1 foci reduction assay (EC50 assay; CAG10-Cy3 FISH, foci per nucleus). It is filed as cell-based. The conditions noted are these: Homo sapiens, Fibroblast; DM1 patient fibroblasts, 48 h treatment, foci per nucleus; read-out: DM1 EC50, 48 h. In outline: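 Foci per nucleus counted by 20× imaging of 4 areas per well, after overnight FISH with 5 nM CAG10-Cy3 and DAPI staining of fixed, permeabilized cells. DM1 fibroblasts (GM04602, 1600 CTG) were dosed 48 h at 37 °C, 8 points, 3-fold dilutions, 3 μM top concentration.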

For the next assay, the system named is F35T cells. The assay can be described thus: Foci reduction in FECD (CAG10-Cy3 FISH, foci per nucleus). To be noted: F35T cells, 48 h treatment, foci per nucleus; read-out: FECD EC50, 48 h. The class given is cell-based. The procedure:
F35T cells were cultured in media containing Opti-MEM (ThermoFisher) supplemented with 8% FBS, 20 μg/mL ascorbic acid, […] CaCl2, 0.08% chondroitin sulfate, 1×Pen/Strep, 100 μg/mL bovine pituitary extract, 5 ng/mL epidermal growth factor, and 20 ng/mL nerve growth factor. Throughout the culture, cells were maintained in an incubator at 37° C. and 5% CO2. Media was refreshed every 48 hours. Once cells reached adequate confluency, they were harvested and seeded in 96 well plates with a density of 5000 cells per well in 200 μL of the supplemented Opti-MEM media. Cells were returned to the incubator and left to settle for 24 hours at 37° C. and 5% CO2. Cells were then treated in 8-point dose response with compounds or negative controls and incubated for 48 hours at 37° C. and 5% CO2. After treatment, cells were fixed with 4% PFA for 20 minutes at room temperature, followed by permeabilization with 70% ethanol. Cells were incubated at −20° C. for a minimum of 1 hour and maximum of 72 hours, after which the ethanol was removed, and cells were washed with PBS. Cells were rehydrated with 30% formamide and 2×SSC buffer for 10 minutes at room temperature. Cells were then incubated overnight at 37° C. in the hybridization solution containing 30% formamide, 2×SSC, 55 mg/mL dextran sulfate, 2.75 mg/mL bovine serum albumin, 0.2 μg/mL Herring sperm DNA, 1% vanadyl-ribonucleoside complex, and 0.05% 10 μM CAG10-Cy3 probe. Cells were washed twice with 30% formamide in 2×SSC, incubating the cells while shaking with the second wash at 37° C. and 200 rpm for 60 minutes. Cells were stained with 5 mg/mL DAPI 1:1000 in PBS, incubating at room temperature for 5 minutes. Cells were then washed with PBS and sealed with adhesive foil, with each well containing a final volume of 150 μL PBS. Cells were imaged on a Cytation 5 and analyzed on a foci per nucleus basis.

Turning to `CCCNC(=O)CCNC(=O)c1cc(NC(=O)c2nc(NC(=O)CCNC(=O)c3cc(NC(=O)c4nc(NC(=O)CCCNC(=O)c5cc(NC(=O)c6nc(NC(=O)CCNC(=O)c7cc(NC(=O)c8nccn8C)cn7C)cn6C)cn5C)cn4C)cn3C)cn2C)cn1C` [Compound B-10], the EC50 in assay [1] is over 1000 nM; with F35T cells it was under 100 nM.

Regarding `Cn1cc(NC(=O)c2nc(NC(=O)CCNC(=O)c3cc(NC(=O)c4nccn4C)cn3C)cn2C)cc1C(=O)NCCCC(=O)Nc1cn(C)c(C(=O)NCCC(=O)Nc2cc(C(=O)Nc3cn(C)c(C(=O)NCCC(=O)NCCOCCOCCOCCOCCOc4ccc(N)cc4)n3)n(C)c2)n1` [Compound B-12], the EC50 (in assay [1]; in the assay on F35T cells) was 100 to 500 nM each time.

Take `Cn1cc(NC(=O)c2nc(NC(=O)CCNC(=O)c3cc(NC(=O)c4nccn4C)cn3C)cn2C)cc1C(=O)NCCCC(=O)Nc1cn(C)c(C(=O)NCCC(=O)Nc2cc(C(=O)Nc3cn(C)c(C(=O)NCCC(=O)NCCOCCOCCOc4ccc(N)cc4)n3)n(C)c2)n1` [Compound B-14]: the EC50 (in assay [1]; with F35T cells) was 100 to 500 nM in each case.

As for `Cn1cc(NC(=O)c2nc(NC(=O)CCNC(=O)c3cc(NC(=O)c4nccn4C)cn3C)cn2C)cc1C(=O)NCCCC(=O)Nc1cn(C)c(C(=O)NCCC(=O)Nc2cc(C(=O)Nc3cn(C)c(C(=O)NCCC(=O)NCCOCCOc4ccc(NC(=O)OCc5ccccc5)cc4)n3)n(C)c2)n1` [Compound B-15], the EC50 (in assay [1]; with F35T cells) was under 100 nM each time.

Regarding `Cn1cc(NC(=O)c2nc(NC(=O)CCNC(=O)c3cc(NC(=O)c4nccn4C)cn3C)cn2C)cc1C(=O)NCCCC(=O)Nc1cn(C)c(C(=O)NCCC(=O)Nc2cc(C(=O)Nc3cn(C)c(C(=O)NCCC(=O)NCCOCCOc4ccc(N)cc4)n3)n(C)c2)n1` [Compound B-16], the EC50 (in assay [1]; with F35T cells) was 100 to 500 nM throughout.

As for `Cn1cc(NC(=O)c2nc(NC(=O)CCNC(=O)c3cc(NC(=O)c4nccn4C)cn3C)cn2C)cc1C(=O)NCCCC(=O)Nc1cn(C)c(C(=O)NCCC(=O)Nc2cc(C(=O)Nc3cn(C)c(C(=O)NCCC(=O)NCCOCCOCCOCCN4CCC(C#CC#CC5CCN(C(=O)OC(C)(C)C)CC5)CC4)n3)n(C)c2)n1` [Compound B-17], the concentration giving a half-maximal response (EC50) (in assay [1]; in the assay on F35T cells) was under 100 nM in each case.

Consider `Cn1cc(NC(=O)c2nc(NC(=O)CCNC(=O)c3cc(NC(=O)c4nccn4C)cn3C)cn2C)cc1C(=O)NCCCC(=O)Nc1cn(C)c(C(=O)NCCC(=O)Nc2cc(C(=O)Nc3cn(C)c(C(=O)NCCC(=O)NCCOCCOCCOCCN4CCC(C#CC#CC5CCNCC5)CC4)n3)n(C)c2)n1` [Compound B-18], for which the EC50 (in assay [1]; in the assay with F35T cells) was 100 to 500 nM each time.

On to `Cn1cc(NC(=O)c2nc(NC(=O)CCNC(=O)c3cc(NC(=O)c4nccn4C)cn3C)cn2C)cc1C(=O)NCCCC(=O)Nc1cn(C)c(C(=O)NCCC(=O)Nc2cc(C(=O)Nc3cn(C)c(C(=O)NCCC(=O)NCCOCCN4CCC(C#CC#CC5CCN(C(=O)OC(C)(C)C)CC5)CC4)n3)n(C)c2)n1` [Compound B-19], for which the EC50 in assay [1] is under 100 nM; in the assay with F35T cells, 100 to 500 nM.

For the compound `Cn1cc(NC(=O)c2nc(NC(=O)CCNC(=O)c3cc(NC(=O)c4nccn4C)cn3C)cn2C)cc1C(=O)NCCCC(=O)Nc1cn(C)c(C(=O)NCCC(=O)Nc2cc(C(=O)Nc3cn(C)c(C(=O)NCCC(=O)NCCOCCN4CCC(C#CC#CC5CCNCC5)CC4)n3)n(C)c2)n1` [Compound B-20], the half-maximal effective concentration (EC50) (in assay [1]; in the assay with F35T cells) was 500 to 1000 nM each time.

For `Cn1cc(NC(=O)c2nc(NC(=O)CCNC(=O)c3cc(NC(=O)c4nccn4C)cn3C)cn2C)cc1C(=O)NCCCC(=O)Nc1cn(C)c(C(=O)NCCC(=O)Nc2cc(C(=O)Nc3cn(C)c(C(=O)NCCC(=O)NCCOCCOCCOCCOCCN4CCN(C5CCN(C(=O)OCc6ccccc6)CC5)CC4)n3)n(C)c2)n1` [Compound B-21], the EC50 (in assay [1]; in the assay with F35T cells) was 100 to 500 nM throughout.

In the case of `Cn1cc(NC(=O)c2nc(NC(=O)CCNC(=O)c3cc(NC(=O)c4nccn4C)cn3C)cn2C)cc1C(=O)NCCCC(=O)Nc1cn(C)c(C(=O)NCCC(=O)Nc2cc(C(=O)Nc3cn(C)c(C(=O)NCCC(=O)NCCOCCOCCOCCOCCN4CCN(C5CCNCC5)CC4)n3)n(C)c2)n1` [Compound B-22], the EC50 (in assay [1]; in the assay on F35T cells) was 100 to 500 nM in each case.

Take `Cn1cc(NC(=O)c2nc(NC(=O)CCNC(=O)c3cc(NC(=O)c4nccn4C)cn3C)cn2C)cc1C(=O)NCCCC(=O)Nc1cn(C)c(C(=O)NCCC(=O)Nc2cc(C(=O)Nc3cn(C)c(C(=O)NCCC(=O)N4CCC(N5CCN(CCOCCOCCOCCOCCNC(=O)OC(C)(C)C)CC5)CC4)n3)n(C)c2)n1` [Compound B-23]: the EC50 was 100 to 500 nM in assay [1] and over 1000 nM in the assay on F35T cells.

Regarding `Cn1cc(NC(=O)c2nc(NC(=O)CCNC(=O)c3cc(NC(=O)c4nccn4C)cn3C)cn2C)cc1C(=O)NCCCC(=O)Nc1cn(C)c(C(=O)NCCC(=O)Nc2cc(C(=O)Nc3cn(C)c(C(=O)NCCC(=O)NCCOCCOCCOCCN4CCN(C5CCN(c6ccc([N+](=O)[O-])cc6)CC5)CC4)n3)n(C)c2)n1` [Compound B-25], the EC50 in assay [1] is 500 to 1000 nM; in the assay on F35T cells, over 1000 nM.

On to `Cn1cc(NC(=O)c2nc(NC(=O)CCNC(=O)c3cc(NC(=O)c4nccn4C)cn3C)cn2C)cc1C(=O)NCCCC(=O)Nc1cn(C)c(C(=O)NCCC(=O)Nc2cc(C(=O)Nc3cn(C)c(C(=O)NCCC(=O)N4CCN(CCOCCOCCOCCOCCNC(=O)OC(C)(C)C)CC4)n3)n(C)c2)n1` [Compound B-27], for which the EC50 (in assay [1]; in the assay with F35T cells) was 100 to 500 nM in each case.

As for `Cn1cc(NC(=O)c2nc(NC(=O)CCNC(=O)c3cc(NC(=O)c4nccn4C)cn3C)cn2C)cc1C(=O)NCCCC(=O)Nc1cn(C)c(C(=O)NCCC(=O)Nc2cc(C(=O)Nc3cn(C)c(C(=O)NCCC(=O)N4CCN(CCOCCOCCOCCOCCN)CC4)n3)n(C)c2)n1` [Compound B-28], the EC50 (in assay [1]; with F35T cells) was 500 to 1000 nM each time.

With `Cn1cc(NC(=O)c2nc(NC(=O)CCNC(=O)c3cc(NC(=O)c4nccn4C)cn3C)cn2C)cc1C(=O)NCCCC(=O)Nc1cn(C)c(C(=O)NCCC(=O)Nc2cc(C(=O)Nc3cn(C)c(C(=O)NCCC(=O)N4CCC(N5CCN(C(=O)OC(C)(C)C)CC5)CC4)n3)n(C)c2)n1` [Compound B-30], the EC50 in assay [1] was 100 to 500 nM; in the assay with F35T cells it was under 100 nM.

Turning to `Cn1cc(NC(=O)c2nc(NC(=O)CCNC(=O)c3cc(NC(=O)c4nccn4C)cn3C)cn2C)cc1C(=O)NCCCC(=O)Nc1cn(C)c(C(=O)NCCC(=O)Nc2cc(C(=O)Nc3cn(C)c(C(=O)NCCC(=O)N4CCC(N5CCNCC5)CC4)n3)n(C)c2)n1` [Compound B-31], the EC50 in assay [1] is under 100 nM; in the assay with F35T cells, 100 to 500 nM.

As for `Cn1cc(NC(=O)c2nc(NC(=O)CCNC(=O)c3cc(NC(=O)c4nccn4C)cn3C)cn2C)cc1C(=O)NCCCC(=O)Nc1cn(C)c(C(=O)NCCC(=O)Nc2cc(C(=O)Nc3cn(C)c(C(=O)NCCC(=O)N4CCN(C5CCN(C(=O)OCc6ccccc6)CC5)CC4)n3)n(C)c2)n1` [Compound B-32], the EC50 (in assay [1]; with F35T cells) was under 100 nM in each case.

On to `CN(C)CCCNC(=O)CCNC(=O)c1nc(NC(=O)c2cc(NC(=O)CCNC(=O)c3nc(NC(=O)CCCNC(=O)c4cc(NC(=O)c5nc(NC(=O)CCNC(=O)c6cc(NC(=O)c7nccn7C)cn6C)cn5C)cn4C)cn3C)cn2C)cn1C` [Compound B-33], for which the EC50 (in assay [1]; with F35T cells) was 100 to 500 nM in each case.

Take `CN(CCCNC(=O)CCNC(=O)c1nc(NC(=O)c2cc(NC(=O)CCNC(=O)c3nc(NC(=O)CCCNC(=O)c4cc(NC(=O)c5nc(NC(=O)CCNC(=O)c6cc(NC(=O)c7nccn7C)cn6C)cn5C)cn4C)cn3C)cn2C)cn1C)CCCNC(=O)c1cccc(C(=O)O)c1` [Compound B-35]: the 50% effective concentration (EC50) in assay [1] was 500 to 1000 nM; in the assay with F35T cells, 100 to 500 nM.

`CN1CCN(CCCNC(=O)CCNC(=O)c2nc(NC(=O)c3cc(NC(=O)CCNC(=O)c4nc(NC(=O)CCCNC(=O)c5cc(NC(=O)c6nc(NC(=O)CCNC(=O)c7cc(NC(=O)c8nccn8C)cn7C)cn6C)cn5C)cn4C)cn3C)cn2C)CC1` [Compound B-36]: the EC50 (in assay [1]; in the assay on F35T cells) was 100 to 500 nM each time.

For the compound `Cn1cc(NC(=O)c2nc(NC(=O)CCNC(=O)c3cc(NC(=O)c4nccn4C)cn3C)cn2C)cc1C(=O)NCCCC(=O)Nc1cn(C)c(C(=O)NCCC(=O)Nc2cc(C(=O)Nc3cn(C)c(C(=O)NCCC(=O)NCCCN4CCOCC4)n3)n(C)c2)n1` [Compound B-37], the EC50 (in assay [1]; in the assay on F35T cells) was 100 to 500 nM each time.

As for `Cn1cc(NC(=O)c2nc(NC(=O)CCNC(=O)c3cc(NC(=O)c4nccn4C)cn3C)cn2C)cc1C(=O)NCCCC(=O)Nc1cn(C)c(C(=O)NCCC(=O)Nc2cc(C(=O)Nc3cn(C)c(C(=O)NCCC(=O)NCCCN4CCCCC4)n3)n(C)c2)n1` [Compound B-38], the EC50 in assay [1] is 100 to 500 nM; in the assay on F35T cells, over 1000 nM.
